In ChEMBL document CHEMBL1150275, “Pharmacological and pharmacokinetic characterization of 2-piperazine-alpha-isopropyl benzylamine derivatives as melanocortin-4 receptor antagonists” (Bioorg Med Chem, 2008):

Test system: Brain
Assay: AUC in mouse brain at 5 mg/kg, iv and 10 mg/kg, po
Assay type: ADME, organism-based
Conditions: in vivo

Which AUC does the source give for Cc1ccc(N2CCN(C(=O)[C@H](C)Cc3ccc(Cl)cc3)CC2)c([C@@H](NC(=O)CCN(C)C)C(C)C)c1 here?
The AUC was 367 ng·h/g.

Test system: not listed separately
Assay: physchem
Conditions: buffer, pH 7.4

Which logD does the source give for Cc1ccc(N2CCN(C(=O)[C@H](C)Cc3ccc(Cl)cc3)CC2)c([C@@H](NC(=O)CCN(C)C)C(C)C)c1 here?
Its logD is 3.4.

Test system: not listed separately
Assay: Drug level in LLC tumor bearing C57BL/6J mouse plasma at 20 mg/kg, po twice daily after 12 hrs on day 4 of administration
Assay type: ADME, organism-based
Set-up: dose 20 mg/kg, route oral
Conditions: not given

Which concentration at 12 h does the source give for Cc1ccc(N2CCN(C(=O)[C@H](C)Cc3ccc(Cl)cc3)CC2)c([C@@H](NC(=O)CCN(C)C)C(C)C)c1 here?
The concentration at 12 h was 405 ng/mL.

Test system: not listed separately
Assay: Drug level in LLC tumor bearing C57BL/6J mouse plasma at 20 mg/kg, po twice daily after 24 hrs on day 4 of administration measured 14 hrs after last dose
Assay type: ADME, organism-based
Set-up: dose 20 mg/kg, route oral
Conditions: not given

Which concentration at 14 h does the source give for Cc1ccc(N2CCN(C(=O)[C@H](C)Cc3ccc(Cl)cc3)CC2)c([C@@H](NC(=O)CCN(C)C)C(C)C)c1 here?
Its concentration at 14 h is 22 ng/mL.

Test system: not listed separately
Assay: Drug level in rat brain at 10 mg/kg, po after 6 hrs
Assay type: ADME, organism-based
Set-up: dose 10 mg/kg, route oral
Conditions: read-out: Drug uptake

For Cc1ccc(N2CCN(C(=O)[C@H](C)Cc3ccc(Cl)cc3)CC2)c([C@@H](NC(=O)CCN(C)C)C(C)C)c1, which concentration at 6 h is on record?
Its concentration at 6 h is 41 ng/g.

Test system: not listed separately
Assay: Drug level in mouse brain at 10 mg/kg, po after 4 hrs
Assay type: ADME, organism-based
Set-up: dose 10 mg/kg, route oral
Conditions: read-out: Drug uptake

For Cc1ccc(N2CCN(C(=O)[C@H](C)Cc3ccc(Cl)cc3)CC2)c([C@@H](NC(=O)CCN(C)C)C(C)C)c1, which concentration at 4 h is on record?
Its concentration at 4 h is 18 ng/g.

Test system: not listed separately
Assay: Drug level in LLC tumor bearing C57BL/6J mouse brain at 20 mg/kg, po twice daily after 2 hrs on day 4 of administration
Assay type: ADME, organism-based
Set-up: dose 20 mg/kg, route oral
Conditions: not given

For Cc1ccc(N2CCN(C(=O)[C@H](C)Cc3ccc(Cl)cc3)CC2)c([C@@H](NC(=O)CCN(C)C)C(C)C)c1, which concentration at 2 h is on record?
The concentration at 2 h was 36 ng/g.

Test system: not listed separately
Assay: Drug level in LLC tumor bearing C57BL/6J mouse brain at 20 mg/kg, po twice daily after 24 hrs on day 4 of administration measured 14 hrs after last dose
Assay type: ADME, organism-based
Set-up: dose 20 mg/kg, route oral
Conditions: not given

Which concentration at 14 h does the source give for Cc1ccc(N2CCN(C(=O)[C@H](C)Cc3ccc(Cl)cc3)CC2)c([C@@H](NC(=O)CCN(C)C)C(C)C)c1 here?
Its concentration at 14 h is 4.5 ng/g.

Test system: not listed separately
Assay: Drug level in LLC tumor bearing C57BL/6J mouse plasma at 20 mg/kg, po twice daily after 12 hrs on day 1 of administration
Assay type: ADME, organism-based
Set-up: dose 20 mg/kg, route oral
Conditions: not given

Which concentration at 12 h does the source give for Cc1ccc(N2CCN(C(=O)[C@H](C)Cc3ccc(Cl)cc3)CC2)c([C@@H](NC(=O)CCN(C)C)C(C)C)c1 here?
The concentration at 12 h was 430 ng/mL.

Test system: not listed separately
Assay: Drug level in LLC tumor bearing C57BL/6J mouse brain at 20 mg/kg, po twice daily after 12 hrs on day 1 of administration
Assay type: ADME, organism-based
Set-up: dose 20 mg/kg, route oral
Conditions: not given

For Cc1ccc(N2CCN(C(=O)[C@H](C)Cc3ccc(Cl)cc3)CC2)c([C@@H](NC(=O)CCN(C)C)C(C)C)c1, which concentration at 12 h is on record?
The concentration at 12 h was 74 ng/g.

Test system: not listed separately
Assay: Drug level in LLC tumor bearing C57BL/6J mouse plasma at 20 mg/kg, po twice daily after 2 hrs on day 1 of administration
Assay type: ADME, organism-based
Set-up: dose 20 mg/kg, route oral
Conditions: not given

With Cc1ccc(N2CCN(C(=O)[C@H](C)Cc3ccc(Cl)cc3)CC2)c([C@@H](NC(=O)CCN(C)C)C(C)C)c1 as the compound, how does the concentration at 2 h read?
The concentration at 2 h was 360 ng/mL.

Test system: not listed separately
Assay: Drug level in LLC tumor bearing C57BL/6J mouse plasma at 20 mg/kg, po twice daily after 24 hrs
Assay type: ADME, organism-based
Set-up: dose 20 mg/kg, route oral
Conditions: not given

For Cc1ccc(N2CCN(C(=O)[C@H](C)Cc3ccc(Cl)cc3)CC2)c([C@@H](NC(=O)CCN(C)C)C(C)C)c1, which concentration at 24 h is on record?
Its concentration at 24 h is 140 ng/mL.

Test system: Caco-2
Assay: Apparent permeability across human Caco-2 cells
Assay type: ADME, cell-based
Conditions: not given

Which Papp does the source give for Cc1ccc(N2CCN(C(=O)[C@H](C)Cc3ccc(Cl)cc3)CC2)c([C@@H](NC(=O)CCN(C)C)C(C)C)c1 here?
Its Papp is 41 ×10⁻⁶ cm/s.

Test system: not listed separately
Assay: Ratio of drug level in brain to plasma in mouse at 5 mg/kg, iv after 4 hrs
Assay type: ADME, organism-based
Set-up: dose 5 mg/kg, route intravenous
Conditions: not given

Which Kp at 4 h does the source give for Cc1ccc(N2CCN(C(=O)[C@H](C)Cc3ccc(Cl)cc3)CC2)c([C@@H](NC(=O)CCN(C)C)C(C)C)c1 here?
The Kp at 4 h was 0.1.

Test system: not listed separately
Assay: Dissociation constant, pKa of the compound
Assay type: physicochemical
Conditions: not given

For Cc1ccc(N2CCN(C(=O)[C@H](C)Cc3ccc(Cl)cc3)CC2)c([C@@H](NC(=O)CCN(C)C)C(C)C)c1, which pKa is on record?
The pKa was 8.9.

Test system: not listed separately
Assay: Volume of distribution in mouse at 5 mg/kg, iv and 10 mg/kg, po
Assay type: ADME, organism-based
Conditions: in vivo

For Cc1ccc(N2CCN(C(=O)[C@H](C)Cc3ccc(Cl)cc3)CC2)c([C@@H](NC(=O)CCN(C)C)C(C)C)c1, which Vd is on record?
Its Vd is 4.1 L/kg.

Test system: not listed separately
Assay: Drug level in LLC tumor bearing C57BL/6J mouse plasma at 20 mg/kg, po twice daily after 2 hrs on day 4 of administration
Assay type: ADME, organism-based
Set-up: dose 20 mg/kg, route oral
Conditions: not given

For Cc1ccc(N2CCN(C(=O)[C@H](C)Cc3ccc(Cl)cc3)CC2)c([C@@H](NC(=O)CCN(C)C)C(C)C)c1, which concentration at 2 h is on record?
The concentration at 2 h was 460 ng/mL.

Test system: not listed separately
Assay: Ratio of drug level in brain to plasma in mouse at 5 mg/kg, iv after 1 hr
Assay type: ADME, organism-based
Set-up: dose 5 mg/kg, route intravenous
Conditions: not given

Which Kp at 1 h does the source give for Cc1ccc(N2CCN(C(=O)[C@H](C)Cc3ccc(Cl)cc3)CC2)c([C@@H](NC(=O)CCN(C)C)C(C)C)c1 here?
The Kp at 1 h was 0.1.

Test system: Brain
Assay: AUC in rat brain at 10 mg/kg, po
Assay type: ADME, organism-based
Set-up: dose 10 mg/kg, route oral
Conditions: in vivo

With Cc1ccc(N2CCN(C(=O)[C@H](C)Cc3ccc(Cl)cc3)CC2)c([C@@H](NC(=O)CCN(C)C)C(C)C)c1 as the compound, how does the AUC read?
Its AUC is 254 ng·h/g.

Test system: not listed separately
Assay: Ratio of Cmax in brain to plasma in mouse at 5 mg/kg, iv and 10 mg/kg, po
Assay type: ADME, organism-based
Conditions: not given

For Cc1ccc(N2CCN(C(=O)[C@H](C)Cc3ccc(Cl)cc3)CC2)c([C@@H](NC(=O)CCN(C)C)C(C)C)c1, which Kp is on record?
Its Kp is 0.1.

Test system: not listed separately
Assay: Drug level in mouse brain at 10 mg/kg, po after 1 hr
Assay type: ADME, organism-based
Set-up: dose 10 mg/kg, route oral
Conditions: not given

Which concentration at 1 h does the source give for Cc1ccc(N2CCN(C(=O)[C@H](C)Cc3ccc(Cl)cc3)CC2)c([C@@H](NC(=O)CCN(C)C)C(C)C)c1 here?
The concentration at 1 h was 19 ng/g.

Test system: not listed separately
Assay: Tmax in mouse brain at 5 mg/kg, iv and 10 mg/kg, po
Assay type: ADME, organism-based
Conditions: not given

For Cc1ccc(N2CCN(C(=O)[C@H](C)Cc3ccc(Cl)cc3)CC2)c([C@@H](NC(=O)CCN(C)C)C(C)C)c1, which Tmax is on record?
Its Tmax is 18 min.

Test system: not listed separately
Assay: Ratio of drug level in brain to plasma in mouse at 10 mg/kg, po after 1 hr
Assay type: ADME, organism-based
Set-up: dose 10 mg/kg, route oral
Conditions: brain and plasma

With Cc1ccc(N2CCN(C(=O)[C@H](C)Cc3ccc(Cl)cc3)CC2)c([C@@H](NC(=O)CCN(C)C)C(C)C)c1 as the compound, how does the Kp at 1 h read?
The Kp at 1 h was 0.1.

Test system: Brain
Assay: Drug level in LLC tumor bearing C57BL/6J mouse brain at 5 mg/kg, po
Assay type: ADME, organism-based
Set-up: dose 5 mg/kg, route oral
Conditions: in vivo

For Cc1ccc(N2CCN(C(=O)[C@H](C)Cc3ccc(Cl)cc3)CC2)c([C@@H](NC(=O)CCN(C)C)C(C)C)c1, which Drug uptake is on record?
The Drug uptake was 2 ng/mL.

Test system: not listed separately
Assay: Drug level in LLC tumor bearing C57BL/6J mouse brain at 20 mg/kg, po twice daily after 24 hrs
Assay type: ADME, organism-based
Set-up: dose 20 mg/kg, route oral
Conditions: not given

With Cc1ccc(N2CCN(C(=O)[C@H](C)Cc3ccc(Cl)cc3)CC2)c([C@@H](NC(=O)CCN(C)C)C(C)C)c1 as the compound, how does the concentration at 24 h read?
The concentration at 24 h was 11 ng/g.

Test system: not listed separately
Assay: Cmax in mouse brain at 5 mg/kg, iv and 10 mg/kg, po
Assay type: ADME, organism-based
Conditions: not given

For Cc1ccc(N2CCN(C(=O)[C@H](C)Cc3ccc(Cl)cc3)CC2)c([C@@H](NC(=O)CCN(C)C)C(C)C)c1, which Cmax is on record?
The Cmax was 91 ng/g.

Test system: not listed separately
Assay: Drug level in LLC tumor bearing C57BL/6J mouse brain at 20 mg/kg, po twice daily after 12 hrs on day of administration
Assay type: ADME, organism-based
Set-up: dose 20 mg/kg, route oral
Conditions: not given

For Cc1ccc(N2CCN(C(=O)[C@H](C)Cc3ccc(Cl)cc3)CC2)c([C@@H](NC(=O)CCN(C)C)C(C)C)c1, which concentration at 12 h is on record?
Its concentration at 12 h is 25 ng/g.

Test system: not listed separately
Assay: Ratio of drug level in brain to plasma in mouse at 10 mg/kg, po after 4 hrs
Assay type: ADME, organism-based
Set-up: dose 10 mg/kg, route oral
Conditions: not given

For Cc1ccc(N2CCN(C(=O)[C@H](C)Cc3ccc(Cl)cc3)CC2)c([C@@H](NC(=O)CCN(C)C)C(C)C)c1, which Kp at 4 h is on record?
The Kp at 4 h was 0.1.

Test system: not listed separately
Assay: Drug level in LLC tumor bearing C57BL/6J mouse brain at 20 mg/kg, po twice daily after 2 hrs on day 1 of administration
Assay type: ADME, organism-based
Set-up: dose 20 mg/kg, route oral
Conditions: not given

With Cc1ccc(N2CCN(C(=O)[C@H](C)Cc3ccc(Cl)cc3)CC2)c([C@@H](NC(=O)CCN(C)C)C(C)C)c1 as the compound, how does the concentration at 2 h read?
The concentration at 2 h was 27 ng/g.

Test system: not listed separately
Assay: Ratio of AUC in brain to plasma in mouse at 5 mg/kg, iv and 10 mg/kg, po
Assay type: ADME, organism-based
Conditions: not given

Which Kp does the source give for Cc1ccc(N2CCN(C(=O)[C@H](C)Cc3ccc(Cl)cc3)CC2)c([C@@H](NC(=O)CCN(C)C)C(C)C)c1 here?
Its Kp is 0.15.
